Laboratory results as given in patent US10517952B2, “Nucleophile-triggered degradable materials and methods of making and using the same” (GEORGIA TECH RESEARCH CORPORATION, priority 2014, dated 2019).

Assays:
[1] = Release of entrained cargo from PEG-OND hydrogels; assay type: physicochemical; conditions: pH 7.4 PBS, 37° C.; first-order fit
Method: Finally, the diffusion of entrained, rather than covalently anchored, cargos of different sizes out of OND hydrogels of differing stabilities was measured. This was done with a small molecule (carboxyfluorescein), a globular protein (fluorescein-labeled bovine serum albumin, BSA), and a 30-nm protein nanoparticle (fluorescein-labeled bacteriophage Qb virus-like particle). The first and last species have no available thiol groups; the second was reacted with N-ethylmaleimide before gelation to cap cysteine-34 and avoid tethering of the protein cargo to the hydrogel network. Hydrogels derived from 4-PEG-SH and 7a, 7b, or 8 were formed in the presence of each cargo; the speed of this reaction made it highly unlikely that OND connectors were addressed by protein amine groups under these conditions.
Three sets of three 60 μL gels were prepared using linkers 7a, 7b, and 8, respectively. The first set contained 1 mM small molecule probe 5/6-carboxyfluorescein, while the second and third sets contained FITC labeled BSA and Qβ virus-like particle, respectively. The gels were allowed to set for 30 minutes at room temperature before dilution with 3 mL of pH 7.4 100 mM phosphate buffered saline. The samples were incubated at 37° C. and the increase in absorbance of the supernatant at 497 nm was monitored. The fraction of released dye was plotted against incubation time. Least-squares kinetic fitting to a first-order rate law was performed for release profiles obtained for carboxyfluorescein cargo, and for the release of BSA from non-degradable PEG-EONB (8) hydrogel (Solver plug-in, Microsoft Excel).

[2] = Equilibrium swelling, gel fraction and Mc (Flory-Rehner) of PEG-OND hydrogels; assay type: physicochemical; conditions: for Mc (apparent molecular weight between elastic crosslinks): calculated with the Flory-Rehner equation from swelling results; for Gel Fraction: mass of dry residue post-swelling/input mass of OND and 4-PEG-SH; for Equilibrium Swelling Ratio: mass post-swelling/mass pre-swelling, deionized water, 4° C., 24 hours, n = 3 gels
Method: The swelling of the PEG-OND hydrogels in deionized water was measured at 4° C. to prevent significant fragmentation during the experiment. […] An independent experiment measuring soluble fraction thiol content yielded results complementing those obtained gravimetrically (Table S3, and related discussion below). With the knowledge that small molecules can readily permeate swollen PEG-OND hydrogels (see below), detecting and modifying residual thiols in gels prepared from divalent linkers 7a and 8 by swelling in the presence of a fluorogenic OND derivative was attempted (FIG. 15, and related discussion below).
200 μL gels were prepared in pH 7.4 100 mM phosphate buffered saline containing 7% DMSO with 3.5 wt % 4-PEG-SH and the corresponding bis-, tris-, and tetra-ONDs to provide a 1:1 thiol to electrophile ratio, and allowed to cure for 20 minutes at room temperature. The mass of the gels after curing was recorded (Meq) before suspending in 5.5 mL of water. The hydrogels were stored at 4° C. during swelling to prevent significant degradation of the network during the experiment. The increase in mass of the gels was monitored periodically by decanting and blotting the gel gently with a kimwipe to remove excess water before weighing. After 24 hours swelling, when swelling had stabilized, the mass of the gel was recorded (Meq). The equilibrium mass swelling ratio was then determined using the following relationship:
After weighing equilibrium-swelled gels to determine equilibrium mass swelling ratio, the gels were freeze-dried and the residual mass was weighed (Mres). It is expected that buffer salts present in the sample when it was formed were removed by the multiple changes of swelling solvent (pure water). The mass of the remaining residue was compared to the input mass (Min) of 4-PEG-SH macromer and OND-based linker. The ratio of the residual mass and the input mass provides the fraction of material by mass incorporated into the hydrogel network (gel fraction), as shown in the following equation: […]
The apparent molecular weight between elastically-productive crosslinks (Mc) was determined from equilibrium swelling data, collected as described in section VII.1 and applying a modified form of the Flory-Rehner equation for networks formed under dilute conditions:
[formula] where Mn is the number average molecular weight for the polymeric macromer (10,000 g/mol), v is the specific volume of the polymer ([…] for PEG) V1 is the molar volume of solvent used for swelling ([…] for water), χ is the polymer-interaction parameter (0.43 for PEG-H2O and assumed constant for the described experiments). V2, and V2, are the volume fraction of polymer in the equilibrium swollen gel and the relaxed gel after curing, respectively, and are calculated as follows:
[formula] where qw is the weight swelling ratio after equilibrium swelling, qF is the weight swelling ratio after curing, ρp is the density of the polymer (1.12 g/cm^3 for PEG), ρwater=ρcure solvent is the density of swelling solvent and solvent during gel formation (1.00 g/cm^3 for water). The weight swelling ratios qw and qF are determined from data gathered in equilibrium swelling experiments using the following relationships:
[formula] where ms is the mass of the gel after equilibrium swelling, mc is the mass of the gel after curing, and md is the mass of the dried gel, or input mass of polymer and crosslinkers.
Using the formulae above, masses of hydrogel samples recorded after equilibrium swelling, curing, and drying were applied to estimate the apparent molecular weight between crosslinks, which are summarized in Table 1 of the main text. The experimentally observed Mc values for gels formed using divalent OND linkers was lower than theoretical ideal value Mc,ideal. This can be explained by the fact that the Mc,ideal values calculated for these gels (entries 1-5 of Table S1) are greater than the entanglement molecular weight for polyethylene glycol (˜4,400 g/mol). […]

[3] = Calculation of hydrogel mesh size from equilibrium swelling data; assay type: physicochemical; conditions: for Calculated mesh size: equilibrium-swollen gels
Method: Using the calculated molecular weight between crosslinks, Mc, and the method previously described by Canal and Peppas, the hydrogel mesh size was calculated. First, the root-mean-square end-to-end distance of the polymer chains in the network, (r0^2)^1/2, was calculated as follows: (r0^2)^1/2=lCn^1/2n^1/2 (Equation S10) where l is the average bond length in the polymer (0.146 nm for PEG) and Cn is the characteristic ratio of the polymer (4.0 for PEG). The average number of bonds between crosslinks, n is calculated using the following equation:
[formula] where Mc is the average molecular weight between crosslinks, calculated as described in the previous section, and Mr is the molecular weight of the repeating unit for the PEG macromer (44 g/mol). Finally, the mesh size, ξ, is calculated using the following relationship: ξ=v2,s^−1/3(r0^2)^1/2 (Equation S12) where v2, is the partial volume of polymer in the equilibrium swollen hydrogel, and is calculated using the experimentally determined equilibrium weight swelling ratios.

[4] = Degradation of neat PEG-OND hydrogels (inversion test, time-lapse photography); assay type: physicochemical; conditions: neat gel; for Time gel is stable / collapses (inversion test): no swelling buffer
Method: Degradation rates of the PEG-OND hydrogels in the absence of swelling buffer varied with temperature and with the identity of OND used to form the gel. […] In comparison, gels formed using 7b were stable for more than 60 hours at 37° C., and approximately 13 hours at 50° C.
Three 500 μL 3.5 wt % hydrogels were formed with bis-ONDs 7a and 7b, and bis-EONB 8, respectively, in 2 mL vials with caps. The sealed vials were incubated in an oil bath maintained at 50° C. The samples were periodically removed from heat and the vials were inverted to determine if the gel was still intact, or whether the sample was a free-flowing liquid, as described in the main text. The gel formed between 4-PEG-SH and bis-EONB 8 in FIG. 9 was removed from heat after 5 days, and stored at room temperature in a sealed vial. The hydrogel is still intact at the time of writing (5 days at 50° C. followed by >1 year at room temperature). The inversion test was routinely used in all stability experiments to verify hydrogel integrity during incubation.
In order to observe reverse gelation upon prolonged heating of neat hydrogels, time-lapse photography was carried out. Briefly, 600 μL hydrogels comprised of 3.5 wt % 4-PEG-SH+bis-OND/EONB (7a, 7b, and 8, respectively) in pH 7.4 100 mM potassium phosphate buffer containing 7% DMSO (v/v) were formed in glass culture tubes and allowed to set for 15 minutes. A glass bead (˜160 mg, stained with blue Sharpie-brand marker to improve visibility) was placed carefully on top of each gel, and a drop of silicon oil was added to prevent evaporation at the surface of the gels. The tubes were sealed with lab parafilm and incubated in a 50° C. oil bath. Photos were collected every 2 minutes for ˜22 hours using Chronolapse software (v.1.0.4) and a Creative Labs webcam. Photographs were compiled in chronological order using iMovie software, with each photo occupying one 0.1 s frame. The resulting video is available as S1 Video, mentioned above.

Gel integrity on extended heating (inversion test) ([4]; 50° C.) | Gel stability by time-lapse photography, gel supporting a glass bead ([4]; heating (50° C.)) | Time gel is stable / collapses (inversion test) ([4]; 37° C.) | Time gel is stable / collapses (inversion test) ([4]; 50° C.) | Average mesh size ([3]; average for equilibrium swelled hydrogels from linkers 7a, 7b and 8) | Molecule | kdiffusion of entrained cargo out of PEG-OND hydrogels [1] | Mc (apparent molecular weight between elastic crosslinks) [2] | Gel Fraction [2] | Equilibrium Swelling Ratio [2] | Calculated mesh size [3] | melting point
– | – | – | – | – | 5/6-carboxyfluorescein [reference compound] | 0.000183 ± 8.3e-06 s⁻¹ | – | – | – | – | –
– | – | – | – | – | CCOC(=O)C1=C(C(F)(F)F)C2C=CC1(CNC(=O)CCCC(=O)NCC13C=CC(O1)C(C(=O)OC)=C3C(=O)OC)O2 (centres unmarked) [Linker 10, Dimethyl 1-((5-(((2-(ethoxycarbonyl)-3-(trifluoromethyl)-7-oxabicyclo[2.2.1]hepta-2,5-dien-1-yl)methyl)amino)-5-oxopentanamido)methyl)-7-oxabicyclo[2.2.1]hepta-2,5-diene-2,3-dicarboxylate] | – | 4112 ± 94 g/mol | 0.98 ± 0.04 | 1.87 ± 0.12 | 15.1 ± 1.3 nm | 93 to 97 °C
collapsed | more stable than those made with 7a | more than 60 hours | approximately 13 hours | 14.0±1.0 nm | CCOC(=O)C1=C(C(F)(F)F)C2C=CC1(CNC(=O)CCCC(=O)NCC13C=CC(O1)C(C(F)(F)F)=C3C(=O)OCC)O2 [Linker 7b, Diethyl 1,1′-((glutaroylbis(azanediyl))bis(methylene))bis(3-(trifluoromethyl)-7-oxabicyclo[2.2.1]hepta-2,5-diene-2-carboxylate)] | – | 3698 ± 16 g/mol | 0.96 ± 0.02 | 1.40 ± 0.02 | 13.1 ± 0.1 nm | 166 to 169 °C
– | – | – | – | – | Bovine serum albumin: globular protein cargo, fluorescein-labeled bovine serum albumin | 1.4e-05 ± 2.8e-06 s⁻¹ | – | – | – | – | –
